These results are taken from patent US20210220408A1, “ARYL HYDROCARBON RECEPTOR ANTAGONISTS AND METHODS OF USE” (Magenta Therapeutics Inc., priority 2018, published 2021).

Assay [1] deals with mobilized peripheral blood CD34+ cells. Nature of the assay: CD34+ expansion assay. The assay is classed as cell-based. The note with it: Homo sapiens; read-out: CD34 Frequency EC50. How it is done: Approximately 3,000 mobilized peripheral blood CD34+ cells were plated per well in 384-well plate at a final volume of 45 μL in HSC growth media (SFEM supplemented with Pen/Strep, 50 ng/mL FLT3L, TPO, SCF and IL-6). Serial dilutions were made in HSC growth media with a top final concentration of 10 μM. 5 μL 10× stock was added to each well. The plate was gently tapped on all sides and incubated for 7 days at 37° C./5% CO2. On day 7, the media was aspirated on a Biotek plate washer and 30 μL staining solution was added to the cells with antibodies against CD34-PE, CD90-APC, CD45RA-PE-CF594 in PBS. Cells were washed once in PBS and resuspended in 80 μL for final volume. 40 μL was acquired by flow cytometry (BD Celesta).

The target in assay [2] is T1, aryl hydrocarbon receptor (AHR) (Homo sapiens, UniProt P35869).
T1 sequence (P35869 11-848): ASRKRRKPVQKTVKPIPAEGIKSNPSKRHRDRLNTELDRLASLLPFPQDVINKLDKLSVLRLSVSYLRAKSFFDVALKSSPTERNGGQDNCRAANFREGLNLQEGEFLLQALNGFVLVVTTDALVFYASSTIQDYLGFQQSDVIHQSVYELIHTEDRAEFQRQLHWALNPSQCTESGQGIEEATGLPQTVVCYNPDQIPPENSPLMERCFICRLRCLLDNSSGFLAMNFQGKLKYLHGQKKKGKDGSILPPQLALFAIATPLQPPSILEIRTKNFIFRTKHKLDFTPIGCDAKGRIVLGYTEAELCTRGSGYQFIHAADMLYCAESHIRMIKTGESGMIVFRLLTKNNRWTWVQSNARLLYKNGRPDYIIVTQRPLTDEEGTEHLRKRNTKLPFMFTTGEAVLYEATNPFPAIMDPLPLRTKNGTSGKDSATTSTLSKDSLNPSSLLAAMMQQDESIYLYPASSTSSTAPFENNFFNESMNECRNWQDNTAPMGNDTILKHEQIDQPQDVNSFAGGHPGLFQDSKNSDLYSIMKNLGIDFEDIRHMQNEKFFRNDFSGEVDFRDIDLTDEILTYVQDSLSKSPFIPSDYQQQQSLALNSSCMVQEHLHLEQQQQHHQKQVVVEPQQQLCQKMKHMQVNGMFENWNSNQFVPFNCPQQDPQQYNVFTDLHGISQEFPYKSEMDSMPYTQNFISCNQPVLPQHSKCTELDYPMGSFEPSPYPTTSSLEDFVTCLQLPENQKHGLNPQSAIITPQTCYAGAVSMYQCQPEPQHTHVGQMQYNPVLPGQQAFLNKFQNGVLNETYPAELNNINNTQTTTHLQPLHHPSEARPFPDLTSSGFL
The experiment in a line: DRE-Luciferase reporter high-throughput screen (AHR antagonist, VAF347-activated). (In general: In a reporter assay the amount or activity of a reporter protein is the signal.)

Usually EC50 stands for the concentration giving half of the maximal effect. For orientation: IC50 means the concentration that inhibits the measured activity by half. Read a low IC50 as higher potency. As to `COc1cc(C(F)(F)F)ccc1C(=O)Nc1cccc(N2CCOCC2)c1` [compound 1], the 50% effective concentration (EC50) in assay [1] fell in the range of 500 to 1000 nM. The IC50 in assay [2] lay within 200 to 500 nM.
Taken in the same sequence, the figures for `N#Cc1ccc(C(=O)Nc2cc(C(F)(F)F)ccc2Cl)c(F)c1` [compound 2] were 500 to 1000 nM and 200 to 500 nM.
Taken in the same sequence, the figures for `Cc1ccc(NC(=O)c2cccc(OCc3c(C)noc3C)c2)c(Cl)c1` [compound 3] were 500 to 1000 nM and 200 to 500 nM.
For `Cc1cccc(C(=O)Nc2ccc(-c3nc4ncccc4o3)cc2)c1` [compound 4], in that order: 500 to 1000 nM and 500 to 1000 nM.
Regarding `Cc1ccc(Nc2ccc(NC(=O)c3ccc(-c4ccccc4)cc3)cc2)nn1` [compound 5], in assay [1], the EC50 lay within 1000 to 5000 nM. The same molecule gave an IC50 in assay [2] of 500 to 1000 nM.
`COc1ccccc1C(=O)Nc1cccc(-c2cn3ccsc3n2)c1` [compound 6]: the EC50 in assay [1] lay within 1000 to 5000 nM. This molecule showed an IC50 in assay [2] of 500 to 1000 nM.
Taken in the same sequence, the figures for `Cn1cnnc1Sc1ccc(NC(=O)c2cc(Br)ccc2F)cc1` [compound 7] were 1000 to 5000 nM and 500 to 1000 nM.
For `Cc1ccc(C(=O)Nc2ccc(-c3nccs3)cc2)cc1` [compound 8], in that order: 1000 to 5000 nM and 500 to 1000 nM.
For `CCCCOc1ccc(C(=O)Nc2cccc(C(=O)OCC(C)C)c2)cc1` [compound 9], in that order: not below 5000 nM and 500 to 1000 nM.
In the case of `COc1c(C)cccc1C(=O)Nc1cc(-c2ccc(F)cc2)nn1C` [compound 11], the EC50 in assay [1] fell in the range of 1000 to 5000 nM. The IC50 in assay [2] was in the range of 500 to 1000 nM.
Taken in the same sequence, the figures for `O=C(Nc1ccc2ccccc2n1)c1ccccc1Cl` [compound 12] were 500 to 1000 nM and 500 to 1000 nM.
Taken in the same sequence, the figures for `CSc1ccccc1C(=O)Nc1ccc2[nH]c(-c3ccc(F)cc3)nc2c1` [compound 13] were less than 500 nM and 500 to 1000 nM.
For `COc1ccc(C(=O)Nc2ccc3c(c2)oc2ccccc23)cc1[N+](=O)[O-]` [compound 14], in that order: less than 500 nM and less than 200 nM.
As for `Cc1ccc2nc3sc(C(=O)Nc4cccc(C(F)(F)F)c4)cc3c(=O)n2c1` [compound 15], in assay [1], the concentration for a half-maximal effect (EC50) is less than 500 nM. The molecule further registered an IC50 in assay [2] of less than 200 nM.
For `CCCSc1nc(N)c(C(=O)Nc2ccccc2)cc1C#N` [compound 16], in that order: less than 500 nM and 200 to 500 nM.
In the case of `CC(C)n1nnc2cc(C(=O)Nc3ccc(Cl)cc3)ccc21` [compound 17], the EC50 in assay [1] was less than 500 nM. The concentration for half-maximal inhibition (IC50) in assay [2] is 500 to 1000 nM.
For `COc1cccc(NC(=O)c2cc3c(=O)n4ccccc4nc3n2C)c1` [compound 18], in that order: less than 500 nM and 200 to 500 nM.
For the molecule `Cc1ccc(NC(=O)c2sc3nc(N)c(C#N)cc3c2N)cc1Cl` [compound 19], the concentration giving a half-maximal response (EC50) in assay [1] was less than 500 nM. The IC50 in assay [2] is less than 200 nM.
For `Cc1cccc(NC(=O)c2cc(-c3ccc(C)cc3O)n[nH]2)c1` [compound 20], in that order: 500 to 1000 nM and 500 to 1000 nM.
Consider `Cc1ccc(NC(=O)c2cn3ccccc3n2)cc1` [compound 21], for which the EC50 in assay [1] lay within 500 to 1000 nM. Further, in assay [2], the IC50 was 200 to 500 nM.
On to `COc1ccc(NC(=O)c2nnn(-c3cc(C)cc(C)c3)c2C)c(OC)c1` [compound 22], for which the EC50 in assay [1] fell in the range of 500 to 1000 nM. The half-maximal inhibitory concentration (IC50) in assay [2] was 500 to 1000 nM.
Take `CC(C)(C)c1cc(C(=O)Nc2ccc3c(c2)CCN3S(C)(=O)=O)nc2ncnn12` [compound 48]: in assay [2], the IC50 is less than 200 nM.
The same measure, in the same setting: then `O=C(Nc1ccc2[nH]c(C(F)(F)F)nc2c1)c1cccn(Cc2ccccc2)c1=O` [compound 49], with less than 200 nM; and `COc1ccccc1-c1nc(-c2ccc(CN(C)C(C)=O)cc2)cs1` [compound 50], with less than 200 nM; and `O=[N+]([O-])c1cccc(-c2csc(-c3cccc(-n4cnc(Cl)c4Cl)c3)n2)c1` [compound 51], with 200 to 500 nM.
Same read-out and setting: then `CCCOc1ccc(-c2csc(N3CCCC3=O)n2)cc1` [compound 54], with 500 to 1000 nM.
`COc1ccc(-c2csc(C3=C(N)N(C(C)C)CC3=O)n2)cc1` [compound 55] returned an IC50 in assay [2] of 500 to 1000 nM.
Still for that read-out and setting: the figure for `COc1ccccc1N(C(=O)c1ccc(O)nc1)c1nc(-c2ccc([N+](=O)[O-])cc2)cs1` [compound 56] is 200 to 500 nM.
Same read-out and setting: the figure for `CS(=O)(=O)c1ccc(-c2csc(-c3cccs3)n2)cc1` [compound 61] is 200 to 500 nM; for `O=C(Cc1cccc(F)c1)Nc1ccc(-c2nccs2)cc1` [compound 62] it is 500 to 1000 nM; for `COc1ccc(CC(=O)Nc2ccc(-c3nccs3)cc2)cc1S(=O)(=O)N1CCOCC1` [compound 63] it is 500 to 1000 nM.
As to `Clc1ccc(-c2ncc(-c3cc[nH]n3)s2)cc1` [compound 64], the IC50 in assay [2] is 500 to 1000 nM.
In assay [2], `CCNC(=O)c1sc2ncc(C(=O)c3ccc(C)cc3)n2c1C` [compound 66] showed an IC50 of 200 to 500 nM.
Still for that read-out and setting: the figure for `Cc1cn2cc(-c3ccc(F)cc3)nc2s1` [compound 67] is 500 to 1000 nM; for `COc1ccnc(N2CCN(c3ccc(Cl)cc3)CC2)c1C#N` [compound 80] it is less than 200 nM.
`CN(C)c1nc(N2CCN(c3ccc(F)cc3)CC2)cc(C(F)(F)F)n1` [compound 81] showed an IC50 in assay [2] of 200 to 500 nM.
On the same count and under the same terms, then `Cc1cc2cc(Nc3nccc(C(F)(F)F)n3)ccc2[nH]1` [compound 84], with 200 to 500 nM.
Molecule `Cc1ccc(N)cc1Nc1nccc(-c2cccnc2)n1` [compound 85] gave an IC50 in assay [2] of 500 to 1000 nM.
Still for that read-out and setting: then `COC(=O)c1cnn(-c2cc(Nc3c(F)cccc3F)ncn2)c1N` [compound 86], with 200 to 500 nM.
In assay [2], `FC(F)(F)c1cnc(-c2cnc(-c3ccccn3)nc2)c(Cl)c1` [compound 87] registered an IC50 of 500 to 1000 nM.
The molecule `CC(=O)N(CCn1nc(C)cc1C)c1nc2c(F)cc(F)cc2s1` [compound 93] had an IC50 in assay [2] of 200 to 500 nM.
In assay [2], `CN(C)c1cccc(-c2nnc(-c3ccc(C(F)(F)F)cc3)[nH]2)c1` [compound 97] displayed a half-inhibitory concentration (IC50) of 200 to 500 nM.
For `CCOC(=O)c1c(C)[nH]c(-c2cn3ccccc3n2)c1C` [compound 102], the half-inhibitory concentration (IC50) in assay [2] is 200 to 500 nM.
Same read-out and setting: the figure for `CN(C)C(=O)Oc1ccc(-c2cn3cc(C(F)(F)F)ccc3n2)cc1` [compound 103] is 500 to 1000 nM; for `Fc1ccc(-c2cn(-c3ccc4nnc(C(F)(F)F)n4n3)cn2)cc1` [compound 108] it is 500 to 1000 nM.
Same read-out and setting: then `C1=C(c2ccccc2)CCN(c2ccc3nnnn3n2)C1` [compound 110], with 500 to 1000 nM; and `COc1ccc(N2CCN(c3nc(C(F)(F)F)cs3)CC2)cc1` [compound 111], with 500 to 1000 nM.
`CN1/C(=N/c2ccccc2)SCC1(O)c1ccc([N+](=O)[O-])cc1` (stereo not shown) [compound 142] yielded an IC50 in assay [2] of 200 to 500 nM.
The same measure, in the same setting: then `CC(=O)N1CC=C(c2ccc(OCc3ccc(C#N)cc3)cc2)CC1` [compound 143], with 200 to 500 nM.
`c1cncc(-c2noc(-c3cc(-c4cccs4)[nH]n3)n2)c1` [compound 144]: in assay [2], the concentration for half-maximal inhibition (IC50) lay in the range of 500 to 1000 nM.
`CC(C)CCNC(=O)c1cc2c(=O)n(C)c3ccccc3c2s1` [compound 145] gave an IC50 in assay [2] of 500 to 1000 nM.
The same measure, in the same setting: the figure for `CCC(=O)N1CCc2nc(-c3ccccc3)sc2C1` [compound 147] is 500 to 1000 nM; for `CC(C)C(=O)Nc1ccc2c(c1)C(=O)c1c-2nn(C)c1C(C)(C)C` [compound 148] it is 500 to 1000 nM.
For the molecule `CN(C)c1ccc(-c2nnc(-c3cccs3)o2)cc1` [compound 149], in assay [2], the IC50 lay in the range of 500 to 1000 nM.
Still for that read-out and setting: the figure for `O=C(Nc1cnc2ccc(C(F)(F)F)cn2c1=O)OCc1ccccc1` [compound 151] is 500 to 1000 nM; for `COc1ccc2c(c1)-c1cccc([N+](=O)[O-])c1CC2C#N` (stereo not shown) [compound 152] it is 500 to 1000 nM; for `CN(CC(=O)NC(=O)Nc1ccccc1)Cc1ccc(Cl)s1` [compound 153] it is 500 to 1000 nM.
The same measure, in the same setting: the figure for `N#Cc1ccccc1COc1ccc(-n2cnnn2)cc1` [compound 154] is 500 to 1000 nM; for `FCCCSc1nnc(-c2cc3cc4ccccc4nc3s2)o1` [compound 155] it is 500 to 1000 nM.
Regarding `O=c1[nH]nc(CNc2ccc(Cl)cc2Cl)c2ccccc12` [compound 156], the IC50 in assay [2] is 500 to 1000 nM.
Still for that read-out and setting: the figure for `O=[N+]([O-])c1cc(C(F)(F)F)ccc1Oc1ccc(-c2noc(-c3ccccc3F)n2)cc1` [compound 157] is 500 to 1000 nM.
